Reference: patent publication US12037346B2, “Amino-substituted heteroaryls for treating cancers with EGFR mutations” (Nuvalent, Inc., priority 2021, dated 2024)

What was measured:
Type in all cases: cell-based
[1] = system: A431 cells (amplification of the wild-type EGFR gene), phospho-ERK Thr202/Tyr204; test: Cellular phosphorylation assay, pERK (phospho-ERK Thr202/Tyr204 AlphaLISA) in A431; conditions: Homo sapiens, A-431, compound incubated for 5 hours
Description: (§1) Besides Ba/F3s, two commercially available cell lines were also used. NCI-H1781 is a HER2 exon20 insertion cell line bearing HER2-A775_G776insV-G776C. A431 bears amplification of the wild-type EGFR gene.
(§2) Ba/F3 cells were plated at 50,000 cells/well (40 μL), or NCI-H1781 cells or A431 cells were plated at 12,500 cells/well (40 μL), in a 384-well plate for 1 day. Test compounds (40 nL) were then added in a 3-fold dilution series using the TECAN EV0200 liquid handler and incubated for 5 hours. Only for pEGFR analysis in A431, the cells were briefly stimulated with EGF (30 ng/mL) for 15 minutes. Media were removed using Apricot Designs. Phosphoproteins were analyzed using the phospho-EGFR Tyr1068 AlphaLISA kit (“pEGFR”; PerkinElmer #ALSU-PEGFR-B10K;) phospho-ERK Thr202/Tyr204 AlphaLISA kit (“pERK”; PerkinElmer #ALSU-PERK-A10K) or the phospho-ErbB2 Tyr1221/1222 AlphaLISA kit (“pHER2”; PerkinElmer #ALSU-PEB2-A10K;) according to the manufacturer's instructions. Briefly, cells were lysed with lysis buffer (10 μL) containing protease-inhibitor and phosphatase-inhibitor cocktails. The lysates were transferred into a new optical plate, incubated with the acceptor mix (5 μL) for 1.5-2 hours at room temperature in darkness, and then mixed with the donor mix (5 μL) overnight in darkness. Fluorescence was measured on a plate reader using the appropriate AlphaLISA settings. Half-maximal inhibitory concentration (IC50) was calculated from percent inhibition and inhibitor concentration using four-parameter logistic regression. […]

[2] = biological target: T1, wild-type EGFR (A431 cells) (Homo sapiens, UniProt P00533); test: Cellular phosphorylation assay, pEGFR (phospho-EGFR Tyr1068 AlphaLISA) in A431; conditions: compound incubated for 5 hours, EGF (30 ng/mL) for 15 minutes
T1 construct: A431 bears amplification of the wild-type EGFR gene; endogenous in cells; host or cells: A431
T1 sequence (P00533 25-1210): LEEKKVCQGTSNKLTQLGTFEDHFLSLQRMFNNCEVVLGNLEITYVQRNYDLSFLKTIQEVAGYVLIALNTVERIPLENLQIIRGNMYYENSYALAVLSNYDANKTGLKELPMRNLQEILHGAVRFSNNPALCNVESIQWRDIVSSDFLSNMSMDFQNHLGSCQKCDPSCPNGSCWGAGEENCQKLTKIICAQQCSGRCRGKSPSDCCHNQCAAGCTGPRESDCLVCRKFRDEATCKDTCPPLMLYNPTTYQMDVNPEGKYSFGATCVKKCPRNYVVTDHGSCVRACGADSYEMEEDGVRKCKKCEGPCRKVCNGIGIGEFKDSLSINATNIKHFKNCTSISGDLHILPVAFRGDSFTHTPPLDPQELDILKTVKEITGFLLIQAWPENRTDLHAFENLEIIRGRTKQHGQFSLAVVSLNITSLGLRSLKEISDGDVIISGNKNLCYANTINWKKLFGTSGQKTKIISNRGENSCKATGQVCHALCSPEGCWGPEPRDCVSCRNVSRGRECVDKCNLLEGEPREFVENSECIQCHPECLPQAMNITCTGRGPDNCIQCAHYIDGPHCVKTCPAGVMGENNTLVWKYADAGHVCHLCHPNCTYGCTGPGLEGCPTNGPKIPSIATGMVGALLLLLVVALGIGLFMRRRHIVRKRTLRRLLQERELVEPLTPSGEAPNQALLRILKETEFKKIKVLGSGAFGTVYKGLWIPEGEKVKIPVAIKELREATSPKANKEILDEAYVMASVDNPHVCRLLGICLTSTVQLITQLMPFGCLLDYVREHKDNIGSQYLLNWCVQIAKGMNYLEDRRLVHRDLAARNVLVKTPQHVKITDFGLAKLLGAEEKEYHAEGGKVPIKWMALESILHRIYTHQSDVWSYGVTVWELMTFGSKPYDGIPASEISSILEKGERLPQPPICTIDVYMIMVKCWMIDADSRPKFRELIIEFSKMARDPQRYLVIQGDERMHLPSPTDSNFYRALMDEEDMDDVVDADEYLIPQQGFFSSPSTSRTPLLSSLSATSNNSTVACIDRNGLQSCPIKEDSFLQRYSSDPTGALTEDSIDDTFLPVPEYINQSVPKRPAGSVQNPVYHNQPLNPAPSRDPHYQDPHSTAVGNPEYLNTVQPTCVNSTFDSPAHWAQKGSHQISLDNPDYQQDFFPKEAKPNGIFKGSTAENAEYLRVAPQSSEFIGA
Description: as §1, §2

[3] = biological target: Ba/F3 HER2-YVMA cells (HER2-A775_G776insYVMA) (Homo sapiens, UniProt P04626, DUP772-775, cells depend on it); test: Cell proliferation assay (CellTiter-Glo), Ba/F3 HER2-YVMA; conditions: read-out: Ba/F3 HER2-YVMA cell proliferation IC50
Chain of Ba/F3 HER2-YVMA cells (HER2-A775_G776insYVMA) (P04626 with tags, fused parts or gaps DUP772-775): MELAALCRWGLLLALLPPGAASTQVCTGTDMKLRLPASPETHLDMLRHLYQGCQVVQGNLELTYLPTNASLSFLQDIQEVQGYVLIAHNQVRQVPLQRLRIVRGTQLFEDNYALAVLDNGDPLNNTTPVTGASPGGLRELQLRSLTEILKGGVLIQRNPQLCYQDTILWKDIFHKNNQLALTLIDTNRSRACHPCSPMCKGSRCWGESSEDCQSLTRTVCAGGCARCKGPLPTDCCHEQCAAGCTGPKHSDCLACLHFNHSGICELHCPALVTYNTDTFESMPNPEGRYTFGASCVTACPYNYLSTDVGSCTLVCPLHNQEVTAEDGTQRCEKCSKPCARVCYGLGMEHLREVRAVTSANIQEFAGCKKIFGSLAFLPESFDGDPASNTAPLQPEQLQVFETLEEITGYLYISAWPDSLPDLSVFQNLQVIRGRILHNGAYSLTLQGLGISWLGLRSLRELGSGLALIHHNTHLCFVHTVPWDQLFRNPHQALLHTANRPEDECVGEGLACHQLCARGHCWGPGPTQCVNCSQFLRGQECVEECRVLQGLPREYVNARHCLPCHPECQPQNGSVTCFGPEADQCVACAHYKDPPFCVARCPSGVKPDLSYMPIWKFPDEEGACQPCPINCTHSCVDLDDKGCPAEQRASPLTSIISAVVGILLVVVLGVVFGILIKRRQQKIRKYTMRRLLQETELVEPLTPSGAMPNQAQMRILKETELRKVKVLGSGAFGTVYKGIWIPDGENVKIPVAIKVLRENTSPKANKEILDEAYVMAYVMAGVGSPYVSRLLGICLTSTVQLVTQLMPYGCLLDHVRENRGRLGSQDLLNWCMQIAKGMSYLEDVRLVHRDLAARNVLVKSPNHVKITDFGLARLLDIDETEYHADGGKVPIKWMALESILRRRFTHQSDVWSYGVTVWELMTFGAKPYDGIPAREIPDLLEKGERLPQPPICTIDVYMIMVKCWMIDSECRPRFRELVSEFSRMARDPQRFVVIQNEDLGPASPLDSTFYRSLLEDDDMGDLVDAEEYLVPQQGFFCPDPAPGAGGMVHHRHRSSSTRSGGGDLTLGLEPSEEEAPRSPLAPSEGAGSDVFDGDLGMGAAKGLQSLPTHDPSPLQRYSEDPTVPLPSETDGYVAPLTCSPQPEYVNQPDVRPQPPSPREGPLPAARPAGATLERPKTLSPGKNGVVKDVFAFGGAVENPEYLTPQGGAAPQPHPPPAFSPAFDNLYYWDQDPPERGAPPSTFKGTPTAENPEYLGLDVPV
Description: The gene encoding HER2-A775_G776insYVMA (“HER2-YVMA”) was synthesized at GeneRay, cloned into the retroviral construct pMSCV-puro (Biovector), and packaged into retroviral particles. The virus was used to infect Ba/F3 cells (RIKEN) at multiplicity of infection=1 or 10 for 1 day. Infected cells were rescued in media (RPMI-1640 with 10% fetal bovine serum and 1% streptomycin and penicillin) supplemented with mouse IL-3 (10 ng/mL) for 2 days, and stable cell lines were selected by IL-3 withdrawal and puromycin (0.8 μg/mL) for 7 days. Monoclones were selected by single-cell dilution in IL-3-free medium containing puromycin ([…]). Transformation of desired genes was confirmed by Sanger sequencing and western blot using the following antibody: HER2 (CST #2242).
(§3) Ba/F3 cells were plated at 1,000 cells/well (40 μL), or NCI-H1781 or A431 cells were plated at 2,000 cells/well (40 μL), in a 384-well plate for 1 day. Test compounds (40 nL) were then added in a 3-fold dilution series using the TECAN EV0200 liquid handler and incubated for 48 hours (“2 days”), 72 hours (“3 days”), or 48 hours followed by renewal of compound solutions and further incubation for 72 hours (“2 days/3 days”). The 72-hour assay was necessary for NCI-H1781 cells, which are slow-growing, and the resupply of fresh compounds on day 3 obviated the potential confounding effects arising from compound degradation in cell media over 72 hours. Plates were equilibrated at room temperature for 15 minutes followed by addition of 40 μL CellTiter-Glo reagent (Promega). Luminescence was measured on a plate reader. Half-maximal inhibitory concentration (IC50) was calculated from percent inhibition and inhibitor concentration using four-parameter logistic regression. […] In these cases, the regression curve was drawn only for the first inflexion to accurately measure on-target growth inhibitory effect.
(§4) Ba/F3, NCI-H1781, and A431 proliferation is driven by the oncogenes in the same way that cancer cell proliferation in humans is driven by the expression of equivalent oncogenes.

[4] = system: NCI-H1781 cells (HER2-A775_G776insV-G776C); test: Cell proliferation assay (CellTiter-Glo), NCI-H1781; conditions: first inflexion of biphasic curve
Description: as §1, §3, §4

SMILES | IC50 [1] | IC50 [2] | GI50 [3] | IC50 [4]
C=CC(=O)N1CCN(c2ncc3ncnc(Nc4ccc(Oc5ccn6ncnc6c5)c(C)c4F)c3n2)[C@H](C)[C@@H]1C (relative stereo) [Example 40] | < 100 nM | < 100 nM | < 100 nM | < 100 nM
C=CC(=O)N1CCN(c2ccc3ncnc(Nc4ccc(Oc5ccn6ncnc6c5)c(C)c4)c3n2)C[C@H]1C [Example 6] | 100 to 500 nM | 100 to 500 nM | < 100 nM | < 100 nM
Cc1cc(Nc2ncnc3ccc(N4CCN(C(=O)/C=C/CN(C)C)CC4)nc23)ccc1Oc1ccn2ncnc2c1 [Example 7] | 100 to 500 nM | 100 to 500 nM | < 100 nM | < 100 nM
C=CC(=O)N1CCN(c2ccc3ncnc(Nc4ccc(Oc5ccn6ncnc6c5)c(C)c4)c3n2)C(=O)C1 [Example 8] | ≥ 1000 nM | ≥ 1000 nM | < 100 nM | < 100 nM
C=CC(=O)N1CC=C(c2ccc3ncnc(Nc4cc(C)c(Oc5ccn6ncnc6c5)cc4F)c3n2)CC1 [Example 11] |  | ≥ 1000 nM | < 100 nM | 100 to 500 nM
C=CC(=O)N1CC=C(c2ccc3ncnc(Nc4ccc(Oc5cc(OC)n6ncnc6c5)c(C)c4)c3n2)CC1 [Example 15] | ≥ 1000 nM | ≥ 1000 nM | < 100 nM | 100 to 500 nM
C=CC(=O)N1CC=C(c2ccc3ncnc(Nc4ccc(Oc5cc(Cl)n6ncnc6c5)c(C)c4)c3n2)CC1 [Example 16] | 500 to 1000 nM | 500 to 1000 nM | < 100 nM | 100 to 500 nM
C=CC(=O)N1CC=C(c2ccc3ncnc(Nc4ccc(Oc5cc(C)n6ncnc6c5)c(C)c4)c3n2)CC1 [Example 17] | ≥ 1000 nM | ≥ 1000 nM | < 100 nM | < 100 nM
C=CC(=O)N1CCN(c2ccc3ncnc(Nc4ccc(Oc5ccn6ncnc6c5)c(C)c4)c3c2OC)CC1 [Example 20] | ≥ 1000 nM | ≥ 1000 nM | < 100 nM | < 100 nM
C=CC(=O)N1CCN(c2ccc3ncnc(Nc4ccc(Oc5ccn6ncnc6c5)c(C)c4)c3n2)[C@@H](C)C1 [Example 22] | 500 to 1000 nM | ≥ 1000 nM | < 100 nM | < 100 nM
C=CC(=O)N1CCN(c2ccc3ncnc(Nc4ccc(Oc5ccn6ncnc6c5)c(C)c4)c3c2F)CC1 [Example 29] |  | ≥ 1000 nM | < 100 nM | < 100 nM
C=C(F)C(=O)N1CC=C(c2ccc3ncnc(Nc4ccc(Oc5ccn6ncnc6c5)c(C)c4)c3n2)CC1 [Example 31] | ≥ 1000 nM | ≥ 1000 nM | ≥ 1000 nM | ≥ 1000 nM
C=CC(=O)N1CCN(c2ncc3ncnc(Nc4ccc(Oc5ccn6ncnc6c5)c(C)c4F)c3n2)C[C@H]1C [Example 32] | 500 to 1000 nM |  | < 100 nM | < 100 nM
C=CC(=O)N1CCN(c2ncc3ncnc(Nc4cc(C)c(Oc5ccn6ncnc6c5)cc4F)c3n2)[C@H](C)C1 [Example 34] |  | ≥ 1000 nM | 100 to 500 nM | 100 to 500 nM
C=CC(=O)N1CCN(c2ncc3ncnc(Nc4cc(C)c(Oc5ccn6ncnc6c5)cc4F)c3n2)[C@@H](C)C1 [Example 35] | ≥ 1000 nM | ≥ 1000 nM | < 100 nM | 100 to 500 nM
C=CC(=O)N1CCN(c2ncc3ncnc(Nc4cc(C)c(Oc5ccn6ncnc6c5)cc4F)c3n2)C[C@@H]1C [Example 36] | ≥ 1000 nM | ≥ 1000 nM | 100 to 500 nM | 100 to 500 nM
C=CC(=O)N1CC=C(c2ncc3ncnc(Nc4ccc(Oc5ccn6ncnc6c5)c(C)c4F)c3n2)CC1 [Example 37] | ≥ 1000 nM | 500 to 1000 nM | < 100 nM | < 100 nM
C=CC(=O)N1CC=C(c2ncc3ncnc(Nc4cc(C)c(Oc5ccn6ncnc6c5)cc4F)c3n2)CC1 [Example 38] |  | ≥ 1000 nM | 100 to 500 nM | 100 to 500 nM
C=CC(=O)N1CCN(c2ncc3ncnc(Nc4ccc(Oc5ccn6ncnc6c5)c(C(F)(F)F)c4F)c3n2)C[C@H]1C [Example 39] | ≥ 1000 nM | ≥ 1000 nM | 100 to 500 nM | 500 to 1000 nM
C=CC(=O)N1C[C@@H]2CC[C@H]1CN2c1ncc2ncnc(Nc3ccc(Oc4ccn5ncnc5c4)c(C)c3F)c2n1 [Example 41] | < 100 nM | < 100 nM | < 100 nM | < 100 nM
C=CC(=O)N1CC=C(c2ncc3ncnc(Nc4ccc(Oc5ccn6ncnc6c5)c(C)c4F)c3n2)C[C@@H]1C [Example 42] |  | ≥ 1000 nM | < 100 nM | < 100 nM
C=CC(=O)N1CCN(c2ncc3ncnc(Nc4ccc(Oc5ccn6ncnc6c5)c(C)c4F)c3n2)[C@@H](C)C1 [Example 43] | 100 to 500 nM | 100 to 500 nM | < 100 nM | < 100 nM
C=CC(=O)N1C[C@@H](C)N(c2ncc3ncnc(Nc4ccc(Oc5ccn6ncnc6c5)c(C)c4F)c3n2)C[C@H]1C [Example 44] |  | ≥ 1000 nM | 100 to 500 nM | 100 to 500 nM
C=CC(=O)N1C[C@H]2CC[C@@H]1CN2c1ncc2ncnc(Nc3ccc(Oc4ccn5ncnc5c4)c(C)c3F)c2n1 [Example 45] | ≥ 1000 nM | ≥ 1000 nM | < 100 nM | 100 to 500 nM
C=CC(=O)N1CC=C(c2ncc3ncnc(Nc4ccc(Oc5ccn6ncnc6c5)c(C)c4)c3n2)C[C@@H]1C [Example 95] | ≥ 1000 nM | ≥ 1000 nM | < 100 nM | 
C=CC(=O)N1CCC(c2ncc3ncnc(Nc4ccc(Oc5cc(C)n6ncnc6c5)c(C)c4F)c3n2)=C[C@@H]1C [Example 96] | ≥ 1000 nM | ≥ 1000 nM | 100 to 500 nM | 
C=CC(=O)N1CCN(c2ncc3ncnc(Nc4ccc(Oc5ccn6ncnc6c5)c(C)c4F)c3n2)[C@H](C)[C@H]1C [Example 100] | 100 to 500 nM | ≥ 1000 nM | < 100 nM | 
